Assays:
[1] = system: SMN2 minigene mRNA (SMN2-A minigene) in HEK293H cells; assay: SMN2 minigene mRNA splicing RT-qPCR assay in cultured cells; assay type: cell-based, human; settings: Homo sapiens, HEK293-H; concentration increasing full length SMN2 mRNA 1.5-fold relative to vehicle-treated cells; HEK293H cells with SMN2-A minigene, 24 hours, 7-point concentration data; read-out: EC1.5x for production of full length SMN2 mRNA
Procedure, shortened: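 EC1.5× values derive from a 24 h treatment of SMN2-A minigene HEK293H cells and GAPDH-normalized RT-qPCR of exon 7-included minigene mRNA relative to vehicle-treated cells.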

[2] = system: Smn protein in SMA patient fibroblast cells (GM03813); assay: Smn protein assay in cultured cells (SMN HTRF); assay type: cell-based, human; settings: SMA patient fibroblast cells, 48 hours; for maximum fold (Fold) increase of Smn protein: 7-point concentration data, fold relative to vehicle control; for EC1.5x for Smn protein expression: 7-point concentration curve, SMN HTRF, concentration producing 1.5 times Smn protein vs DMSO vehicle control
Procedure, shortened: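 Cells were cultured 72 h, seeded at 5,000/well and dosed with seven concentrations (3.16-fold apart) for 48 h. HTRF on lysates, read at 665 and 620 nm, gave blank-corrected ΔF values relative to DMSO. Potency is reported as EC1.5×, efficacy as maximal fold Smn increase.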

Structure (SMILES) | melting point | EC (1.5-fold increase) [1] | maximum fold (Fold) increase of Smn protein [2] | EC1.5x for Smn protein expression [2]
Cc1cn2nc(-c3cc(=O)n4cc(N5CCN(C)[C@@H](C)C5)cc(C)c4n3)cc2c(C)n1 [Compound 563, 7-[(3S)-3,4-dimethylpiperazin-1-yl]-2-(4,6-dimethylpyrazolo[1,5-a]pyrazin-2-yl)-9-methyl-4H-pyrido[1,2-a]pyrimidin-4-one] | 244 to 253 °C | 0.1 to 0.3 µM | ***** (a fold increase >1.65 is indicated by five stars (*****)) | **** (an EC1.5x≤0.3 μM is indicated by four stars (****))
Cc1cn2nc(-c3cc(=O)n4cc(N5C[C@@H](C)N(C)[C@@H](C)C5)cc(C)c4n3)cc2c(C)n1 [Compound 564, 2-(4,6-dimethylpyrazolo[1,5-a]pyrazin-2-yl)-9-methyl-7-[(3R,5S)-3,4,5-trimethylpiperazin-1-yl]-4H-pyrido[1,2-a]pyrimidin-4-one] | 297 to 310 °C | 1 to 3 µM | * (A maximum fold increase of ≤1.2 is indicated by one star (*)) | 
Cc1cn2cc(-c3cc(=O)n4cc(C5=CCN(C(C)C)CC5)ccc4n3)ccc2n1 [Compound 565, 2-(2-methylimidazo[1,2-a]pyridin-6-yl)-7-[1-(propan-2-yl)-1,2,3,6-tetrahydropyridin-4-yl]-4H-pyrido[1,2-a]pyrimidin-4-one] | 230 to 232 °C | < 0.1 µM | **** (a fold increase between >1.5 and ≤1.65 is indicated by four stars (****)) | *** (an EC1.5× between >0.3 μM and ≤1 μM is indicated by three stars (***))
Cn1cc2cc(-c3cc(=O)n4cc(C5CCNCC5)ncc4n3)ccc2n1 [Compound 566, 2-(2-methyl-2H-indazol-5-yl)-7-(piperidin-4-yl)-4H-pyrazino[1,2-a]pyrimidin-4-one] | 235 to 237 °C | < 0.1 µM | ***** (a fold increase >1.65 is indicated by five stars (*****)) | **** (an EC1.5x≤0.3 μM is indicated by four stars (****))
CN1CCC(c2cn3c(=O)cc(-c4ccc5nn(C)cc5c4)nc3cn2)CC1 [Compound 567, 2-(2-methyl-2H-indazol-5-yl)-7-(1-methylpiperidin-4-yl)-4H-pyrazino[1,2-a]pyrimidin-4-one] | 275 to 277 °C | 0.1 to 0.3 µM | **** (a fold increase between >1.5 and ≤1.65 is indicated by four stars (****)) | *** (an EC1.5× between >0.3 μM and ≤1 μM is indicated by three stars (***))
Cc1cn2nc(-c3cc(=O)n4cc(N5CCC(CN(C)C)CC5)ccc4n3)cc2c(C)n1 [Compound 570, 7-{4-[(dimethylamino)methyl]piperidin-1-yl}-2-(4,6-dimethylpyrazolo[1,5-a]pyrazin-2-yl)-4H-pyrido[1,2-a]pyrimidin-4-one] | 206 to 208 °C | 0.3 to 1 µM | **** (a fold increase between >1.5 and ≤1.65 is indicated by four stars (****)) | ** (an EC1.5× between >1 μM and ≤3 μM is indicated by two stars (**))
Cc1cn2nc(-c3cc(=O)n4cc(N5CCC(CN6CCCCC6)CC5)ccc4n3)cc2c(C)n1 [Compound 572, 2-(4,6-dimethylpyrazolo[1,5-a]pyrazin-2-yl)-7-[4-(piperidin-1-ylmethyl)piperidin-1-yl]-4H-pyrido[1,2-a]pyrimidin-4-one] | 192 to 195 °C | 0.3 to 1 µM | **** (a fold increase between >1.5 and ≤1.65 is indicated by four stars (****)) | ** (an EC1.5× between >1 μM and ≤3 μM is indicated by two stars (**))
COc1ccc(-c2cc(=O)n3cc(N4CCC(CN(C)C)CC4)ccc3n2)cc1OC [Compound 573, 2-(3,4-dimethoxyphenyl)-7-{4-[(dimethylamino)methyl]piperidin-1-yl}-4H-pyrido[1,2-a]pyrimidin-4-one] | 182 to 184 °C | 0.3 to 1 µM | **** (a fold increase between >1.5 and ≤1.65 is indicated by four stars (****)) | ** (an EC1.5× between >1 μM and ≤3 μM is indicated by two stars (**))

Further lines, with some results ahead:

melting point | Structure (SMILES) | EC (1.5-fold increase) [1] | maximum fold (Fold) increase of Smn protein [2] | EC1.5x for Smn protein expression [2]
229 to 233 °C | CCN1CCC(c2ccc3nc(-c4ccn5cc(C)nc5c4)cc(=O)n3c2)CC1 [Compound 560, 7-(1-ethylpiperidin-4-yl)-2-(2-methylimidazo[1,2-a]pyridin-7-yl)-4H-pyrido[1,2-a]pyrimidin-4-one] | 1 to 3 µM | * (A maximum fold increase of ≤1.2 is indicated by one star (*)) | 
210 to 219 °C | Cc1cn2nc(-c3cc(=O)n4cc(N5CCN[C@@H](C)C5)cc(C)c4n3)cc2c(C)n1 [Compound 561, 2-(4,6-dimethylpyrazolo[1,5-a]pyrazin-2-yl)-9-methyl-7-[(3S)-3-methylpiperazin-1-yl]-4H-pyrido[1,2-a]pyrimidin-4-one] | < 0.1 µM | **** (a fold increase between >1.5 and ≤1.65 is indicated by four stars (****)) | **** (an EC1.5x≤0.3 μM is indicated by four stars (****))
273 to 283 °C | Cc1cn2nc(-c3cc(=O)n4cc(N5C[C@@H](C)N[C@@H](C)C5)cc(C)c4n3)cc2c(C)n1 [Compound 562, 7-[(3R,5S)-3,5-dimethylpiperazin-1-yl]-2-(4,6-dimethylpyrazolo[1,5-a]pyrazin-2-yl)-9-methyl-4H-pyrido[1,2-a]pyrimidin-4-one] | 0.3 to 1 µM | ** (a fold increase between >1.2 and ≤1.35 is indicated by two stars (**)) | 
198 to 200 °C | CCN1CCC(c2cn3c(=O)cc(-c4ccc5nn(C)cc5c4)nc3cn2)CC1 [Compound 568, 7-(1-ethylpiperidin-4-yl)-2-(2-methyl-2H-indazol-5-yl)-4H-pyrazino[1,2-a]pyrimidin-4-one] | < 0.1 µM | ***** (a fold increase >1.65 is indicated by five stars (*****)) | **** (an EC1.5x≤0.3 μM is indicated by four stars (****))
230 to 232 °C | Cn1cc2cc(-c3cc(=O)n4cc(C5CCN(CCO)CC5)ncc4n3)ccc2n1 [Compound 569, 7-[1-(2-hydroxyethyl)piperidin-4-yl]-2-(2-methyl-2H-indazol-5-yl)-4H-pyrazino[1,2-a]pyrimidin-4-one] | < 0.1 µM | ***** (a fold increase >1.65 is indicated by five stars (*****)) | **** (an EC1.5x≤0.3 μM is indicated by four stars (****))
177 to 180 °C | Cc1cn2nc(-c3cc(=O)n4cc(N5CCC(CN6CCCC6)CC5)ccc4n3)cc2c(C)n1 [Compound 571, 2-(4,6-dimethylpyrazolo[1,5-a]pyrazin-2-yl)-7-[4-(pyrrolidin-1-ylmethyl)piperidin-1-yl]-4H-pyrido[1,2-a]pyrimidin-4-one] | 0.3 to 1 µM | **** (a fold increase between >1.5 and ≤1.65 is indicated by four stars (****)) | ** (an EC1.5× between >1 μM and ≤3 μM is indicated by two stars (**))
